Patent US20260242398A1, “BENZOPYRIMIDIN-4(3H)-ONES AS PI3K INHIBITORS” (OnKure, Inc., priority 2022, published 2026)
Like-named read-outs stand apart in the source and are kept apart here.

What was measured:
Type in all cases: cell-based
[1] = tested on: T47D cells expressing mutant PI3Ka (H1047R); assay: In vitro cell proliferation (CellTiter-Glo, 72 hours), T47D cells; details: inhibition of proliferation, read-out: Avg T-47D EC50
Experimental: (§1) In Vitro Cell Proliferation: Determination of EC50 Values for Inhibition of Proliferation in T47D Cells Expressing Mutant PI3Ka (H1047R) Mutation and SKBR3 Cells Express WT PI3Ka.
(§2) T47D or SKBR3 cells were trypsinized, resuspended in culture media and seeded onto assay ready plates. T47D culture media consisted of RPMI, 10% FBS and Insulin (0.2 units/mL). SKBR3 culture media consisted of McCoys 5a and 10% FBS. Cells were seeded at a density of 1,500 cells/well and dispensed in 50 uL onto 384 well assay ready plates (Corning, 89089-790). Assay ready plates had previously been stamped with 10-point dilutions of compounds of interest, as well as controls. The Echo655 is used to stamp plates at 40 nL of compound or DMSO. Cells were grown for 72 hours at 37° Celsius and 5% CO2. After 72 hours, cells were equilibrated at room temperature for 15 minutes. 30 uL of CellTiter-Glo reagent is added to the plate, which is then shaken for 30 minutes at temperature at 300-500 rpm. Cells are then read on an Envision plate reader. The percentage of inhibition of proliferation was calculated using the following formula: % Inhibition=100×(LumD−LumSample)/(LumD−LumInh), where D is obtained from cells treated with 0.1% DMSO only; Inh is obtained from cells treated with 10 uM Alpelisib. The effective concentration achieving 50% inhibition of proliferation (EC50) is calculated by fitting the Curve using XWfit (v5.3.1.3), equation 201: Y=Bottom+(Top−Bottom)/(1+10^((Log EC50−X)*HillSlope)).

[2] = tested on: SKBR3 cells express WT PI3Ka; assay: In vitro cell proliferation (CellTiter-Glo, 72 hours), SKBR3 cells; details: inhibition of proliferation
Experimental: as §1, §2

[3] = tested on: phosphorylation of AKT (pAKT) in T47D cells expressing mutant PI3Ka (H1047R); assay: In vitro cell pAKT (Ser473) HTRF, T47D cells; details: inhibition of pAKT, read-out: Avg T-47D IC50
Experimental: (§3) In Vitro Cell pAKT: Determination of IC50 Values for Inhibition of Phosphorylation of AKT (pAKT) in T47D Cells Expressing Mutant PI3Ka (H1047R) Mutation and SKBR3 Cells Express WT PI3Ka.
(§4) T47D or SKBR3 cells were trypsinized, resuspended in culture media and seeded onto assay ready plates. T47D culture media consisted of RPMI, 10% FBS and Insulin (0.2 units/mL). SKBR3 culture media consisted of McCoy's 5a and 10% FBS. Cells were seeded at a density of 5000 cells/well and dispensed in 12.5 uL onto 384 well assay ready plates (Perkin Elmer, 6008238)). Assay ready plates had previously been stamped with 10-point dilutions of compounds of interest, as well as controls. The Echo655 is used to stamp plates at 12.5 nL of compound or DMSO. Cells were grown for 6 hour at 37° Celsius and 5% CO2. After 6 hour, 4 uL of Lysis buffer reagent was added to the plate, which was then centrifuged for 1 minute at 1000 rpm. Then the plate was incubated at room temperature for 30 minutes. After 30 minutes, 4 uL of antibody mix containing Eu Cryptate, d2 Cryptate, and detection buffer, was added to the plate. The plate was centrifuged for 1 minute at 1000 rpm and then incubated overnight at room temperature. The plate was read on an Envision plate reader using the HTRF protocol. The percentage of inhibition of AKT phosphorylation was calculated using the following formula: % Inhibition=100×(pAKTHC−pAKTSample)/(pAKTHC−pAKTLC)), where pAKTHC is obtained from cells treated with 0.1% DMSO only; pAKTLC is obtained from cells treated with 10 uM Alpelisib. The IC50 (concentration achieving 50% inhibition of pAKT) is calculated by fitting the Curve using XWfit (v5.3.1.3), equation 201: Y=Bottom+(Top−Bottom)/(1+10^((Log IC50−X)*HillSlope)).

[4] = tested on: phosphorylation of AKT (pAKT) in SKBR3 cells express WT PI3Ka; assay: In vitro cell pAKT (Ser473) HTRF, SKBR3 cells; details: inhibition of pAKT
Experimental: as §3, §4

| EC50 [1] [µM] | EC50 ([2]; Homo sapiens, SK-BR-3, 72 h) [µM] | IC50 ([3]; 6 hour) [µM] | IC50 ([4]; Homo sapiens, SK-BR-3, 6 h) [µM] | EC50 [2] [µM] | IC50 ([4]; 6 hour) [µM] | EC50 ([1]; Homo sapiens, T47D, 72 h) [µM] | IC50 ([3]; Homo sapiens, T47D, 6 h) [µM] | Compound |
| --- | --- | --- | --- | --- | --- | --- | --- | --- |
| 0.5 to 2 | 2 to 15 | 0.001 to 1 | > 15 | – | – | – | – | CC(Nc1ccccc1C(=O)O)c1cc(C(F)(F)F)cc2c(=O)n(C)c(N3CCN(CC(F)(F)F)CC3)nc12 (single isomer, unassigned) [Example 37, 2-((1-(3-methyl-4-oxo-2-(4-(2,2,2-trifluoroethyl)piperazin-1-yl)-6-(trifluoromethyl)-3,4-dihydroquinazolin-8-yl)ethyl)amino)benzoic acid] |
| 2 to 15 | – | 1 to 5 | – | > 15 | > 15 | – | – | Cc1cc(C(C)Nc2ccccc2C(=O)O)c2nc(SCC(C)C)n(C)c(=O)c2c1 (single isomer, unassigned) [Example 40, 2-((1-(2-(isobutylthio)-3,6-dimethyl-4-oxo-3,4-dihydroquinazolin-8-yl)ethyl)amino)benzoic acid] |
| – | – | – | > 15 | 2 to 15 | – | 2 to 15 | > 15 | Cc1cc(C(C)Nc2ccccc2C(=O)O)c2nc(Nc3ccc(Cl)cc3)n(C)c(=O)c2c1 (single isomer, unassigned) [Example 41, 2-((1-(2-((4-chlorophenyl)amino)-3,6-dimethyl-4-oxo-3,4-dihydroquinazolin-8-yl)ethyl)amino)benzoic acid] |
| 2 to 15 | – | > 15 | – | > 15 | > 15 | – | – | Cc1cc(C(C)Nc2ccccc2C(=O)O)c2nc(Nc3ccc(Cl)cc3)n(C)c(=O)c2c1 (single isomer, unassigned) [Example 42, 2-((1-(2-((4-chlorophenyl)amino)-3,6-dimethyl-4-oxo-3,4-dihydroquinazolin-8-yl)ethyl)amino)benzoic acid] |
| 2 to 15 | – | > 15 | – | 2 to 15 | > 15 | – | – | Cc1cc(C(C)Nc2ccccc2C(=O)O)c2nc(NC[C@@H](C)c3ccccc3)n(C)c(=O)c2c1 (single isomer, unassigned) [Example 48] |
| 2 to 15 | – | > 15 | – | > 15 | > 15 | – | – | Cc1cc(C(C)Nc2ccccc2C(=O)O)c2nc(N3CCC(C)(C)CC3)n(C3CC3)c(=O)c2c1 (single isomer, unassigned) [Example 50, 2-((1-(3-cyclopropyl-2-(4,4-dimethylpiperidin-1-yl)-6-methyl-4-oxo-3,4-dihydroquinazolin-8-yl)ethyl)amino)benzoic acid] |
| – | > 15 | – | > 15 | – | – | 2 to 15 | 0.001 to 1 | Cc1cc(C(C)Nc2cccc(F)c2C(=O)O)c2nc(N3CCC(C)(C)CC3)n(C)c(=O)c2c1 (centres unmarked) [Example 28, 2-((1-(2-(4,4-dimethylpiperidin-1-yl)-3,6-dimethyl-4-oxo-3,4-dihydroquinazolin-8-yl)ethyl)amino)-6-fluorobenzoic acid] |

The next lines start with the compound.

| Compound | EC50 [1] [µM] | EC50 ([2]; Homo sapiens, SK-BR-3, 72 h) [µM] | IC50 ([3]; 6 hour) [µM] | IC50 ([4]; Homo sapiens, SK-BR-3, 6 h) [µM] | EC50 [2] [µM] | IC50 ([4]; 6 hour) [µM] | EC50 ([1]; Homo sapiens, T47D, 72 h) [µM] | IC50 ([3]; Homo sapiens, T47D, 6 h) [µM] |
| --- | --- | --- | --- | --- | --- | --- | --- | --- |
| CC(Nc1ccccc1C(=O)O)c1cc(C(F)(F)F)cc2c(=O)n(C)c(N3CCN(CC(F)(F)F)CC3)nc12 (single isomer, unassigned) [Example 38, 2-((1-(3-methyl-4-oxo-2-(4-(2,2,2-trifluoroethyl)piperazin-1-yl)-6-(trifluoromethyl)-3,4-dihydroquinazolin-8-yl)ethyl)amino)benzoic acid] | > 15 | – | > 15 | – | 2 to 15 | > 15 | – | – |
| Cc1cc(C(C)Nc2ccccc2C(=O)O)c2nc(SCC(C)C)n(C)c(=O)c2c1 (single isomer, unassigned) [Example 39, 2-((1-(2-(isobutylthio)-3,6-dimethyl-4-oxo-3,4-dihydroquinazolin-8-yl)ethyl)amino)benzoic acid] | > 15 | > 15 | > 15 | > 15 | – | – | – | – |
| Cc1cc(C(C)Nc2ccccc2C(=O)O)c2nc(NCc3ccc(Cl)cc3)n(C)c(=O)c2c1 (single isomer, unassigned) [Example 43, 2-((1-(2-((4-chlorobenzyl)amino)-3,6-dimethyl-4-oxo-3,4-dihydroquinazolin-8-yl)ethyl)amino)benzoic acid] | – | > 15 | 5 to 15 | > 15 | – | – | 2 to 15 | – |
| Cc1cc(C(C)Nc2ccccc2C(=O)O)c2nc(NCc3ccc(Cl)cc3)n(C)c(=O)c2c1 (single isomer, unassigned) [Example 44, 2-((1-(2-((4-chlorobenzyl)amino)-3,6-dimethyl-4-oxo-3,4-dihydroquinazolin-8-yl)ethyl)amino)benzoic acid] | 2 to 15 | – | > 15 | – | > 15 | > 15 | – | – |
| Cc1cc(C(C)Nc2ccccc2C(=O)O)c2nc(NC[C@H](C)c3ccccc3)n(C)c(=O)c2c1 (single isomer, unassigned) [Example 45] | 2 to 15 | – | > 15 | > 15 | > 15 | – | – | – |
| Cc1cc(C(C)Nc2ccccc2C(=O)O)c2nc(NC[C@H](C)c3ccccc3)n(C)c(=O)c2c1 (single isomer, unassigned) [Example 46] | 0.5 to 2 | – | 0.001 to 1 | – | 2 to 15 | > 15 | – | – |
| Cc1cc(C(C)Nc2ccccc2C(=O)O)c2nc(NC[C@@H](C)c3ccccc3)n(C)c(=O)c2c1 (single isomer, unassigned) [Example 47] | 0.5 to 2 | – | 5 to 15 | > 15 | > 15 | – | – | – |
| Cc1cc(C(C)Nc2ccccc2C(=O)O)c2nc(N3CCC(C)(C)CC3)n(C3CC3)c(=O)c2c1 (single isomer, unassigned) [Example 49, 2-((1-(3-cyclopropyl-2-(4,4-dimethylpiperidin-1-yl)-6-methyl-4-oxo-3,4-dihydroquinazolin-8-yl)ethyl)amino)benzoic acid] | – | – | 1 to 5 | > 15 | 2 to 15 | – | 2 to 15 | – |
| Cc1cc(C(C)Nc2ccccc2C(=O)O)c2nc(N3CCC(C)(C)CC3)n(CF)c(=O)c2c1 (single isomer, unassigned) [Example 51, 2-((1-(2-(4,4-dimethylpiperidin-1-yl)-3-(fluoromethyl)-6-methyl-4-oxo-3,4-dihydroquinazolin-8-yl)ethyl)amino)benzoic acid] | – | – | 5 to 15 | > 15 | 2 to 15 | – | 2 to 15 | – |
| Cc1cc(C(C)Nc2ccccc2C(=O)O)c2nc(N3CCC(C)(C)CC3)n(CF)c(=O)c2c1 (single isomer, unassigned) [Example 52, 2-((1-(2-(4,4-dimethylpiperidin-1-yl)-3-(fluoromethyl)-6-methyl-4-oxo-3,4-dihydroquinazolin-8-yl)ethyl)amino)benzoic acid] | 2 to 15 | – | > 15 | – | > 15 | > 15 | – | – |
